For test [1], the system named is Klebsiella pneumoniae. The test can be described thus: Induction of morphological changes in Klebsiella pneumoniae assessed as cell aggregation at 2 times MIC measured after 120 mins by SEM analysis. It is filed as functional, organism-based.
The subject of test [2] is Staphylococcus aureus. As to the kind of experiment: Antibacterial activity against Staphylococcus aureus 25923 at sub-MIC concentration measured after 15 passages in presence of rifampin. It is filed as functional, organism-based.
The test system of test [3] is Cell membrane. The test can be described thus: Induction of outer membrane permeabilization in Escherichia coli assessed as increase in fluorescence intensity measured for 10 mins by fluorescence based NPN uptake assay.
Test [4] concerns Staphylococcus aureus. The test can be described thus: Antibacterial activity against Staphylococcus aureus 25923 at sub-MIC concentration measured after 15 passages. It is filed as functional, organism-based.
Test [5] relates to Klebsiella pneumoniae. As to the kind of experiment: Induction of morphological changes in Klebsiella pneumoniae assessed as cell contraction at 2 times MIC measured after 120 mins by SEM analysis. It is filed as functional, organism-based.
Test [6] concerns Klebsiella pneumoniae. The test can be described thus: Induction of morphological changes in Klebsiella pneumoniae assessed as cell adhesion at 2 times MIC measured after 30 mins by SEM analysis. It is filed as functional, organism-based.
Test [7] deals with Cell membrane. As to the kind of experiment: Induction of outer membrane permeabilization in Escherichia coli assessed as increase in fluorescence intensity at 0.5 times MIC measured for 10 mins by fluorescence based NPN uptake assay.
Test [8] has as its system Klebsiella pneumoniae. As to the kind of experiment: Induction of morphological changes in Klebsiella pneumoniae assessed as cell contraction at 2 times MIC measured after 30 mins by SEM analysis. It is filed as functional, organism-based.
The test system of test [9] is Cell membrane. The test can be described thus: Induction of inner membrane permeabilization in Escherichia coli at 0.5 to 4 times MIC measured for 135 mins by absorbance based analysis.
In test [10] the test system is Klebsiella pneumoniae. As to the kind of experiment: Antibacterial activity against Klebsiella pneumoniae ATCC 700603 infected in male BALB/c mouse lung infection model assessed as reduction in number of inflammatory cells at 5 mg/kg, ip measured after 6 to 36 hrs. It is filed as functional, organism-based. The note with it: time 6-36 hrs.
Test [11] relates to Escherichia coli. As to the kind of experiment: Antibacterial activity against Escherichia coli 25922 at sub-MIC concentration measured after 15 passages in presence of rifampin. It is filed as functional, organism-based.
Test [12] has as its system Klebsiella pneumoniae. As to the kind of experiment: Induction of morphological changes in Klebsiella pneumoniae assessed as cell aggregation at 2 times MIC measured after 30 mins by SEM analysis. It is filed as functional, organism-based.
The subject of test [13] is Lipopolysaccharide (LPS). As to the kind of experiment: Binding affinity to LPS (unknown origin) assessed as reduction in bacterial mortality at 2 times MIC preincubated with LPS for 1 hr followed by bacteria addition for 24 hrs by spectrophotometric analysis.
In test [14] the test system is Cell membrane. As to the kind of experiment: Induction of cytoplasmic membrane depolarization in Staphylococcus aureus assessed as increase in fluorescence intensity at 0.5 to 4 times MIC measured for 10 mins by DiSC3-5 dye based fluorescence assay. It is filed as subcellular.
Test [15] concerns Klebsiella pneumoniae. The test can be described thus: Induction of morphological changes in Klebsiella pneumoniae assessed as cell adhesion at 2 times MIC measured after 120 mins by SEM analysis. It is filed as functional, organism-based.
For test [16], the system named is Staphylococcus aureus. As to the kind of experiment: Antibacterial activity against methicillin resistant Staphylococcus aureus infected in male BALB/c mouse model of skin wound infection assessed as reduction in wound area at 2 mg/kg, ip measured after 6 to 36 hrs postinfection. It is filed as functional, organism-based. The note with it: time 6-36 hrs.
Test [17] has as its system Escherichia coli. The test can be described thus: Induction of cell membrane disruption in Escherichia coli assessed as PI uptake at 4 times MIC measured after 120 mins by PI staining based flow cytometry analysis. It is filed as functional, organism-based. On the technique in general: A flow cytometer gives signals particle by particle.
The test system of test [18] is Escherichia coli. As to the kind of experiment: Induction of cell membrane disruption in Escherichia coli assessed as PI uptake at 2 times MIC measured after 120 mins by PI staining based flow cytometry analysis (Rvb =<10 %). The settings on record: 2 h. It is filed as functional.
In test [19] the test system is Staphylococcus aureus. The test can be described thus: Antibacterial activity against methicillin-resistant Staphylococcus aureus ATCC 33591 assessed as reduction in bacterial growth incubated for 18 to 24 hrs by broth microdilution method. It is filed as functional. The settings on record: time 18-24 hrs.
Test [20] deals with Acinetobacter baumannii. The test can be described thus: Antibacterial activity against Acinetobacter baumannii 92359 assessed as reduction in bacterial growth incubated for 18 to 24 hrs by broth microdilution method. It is filed as functional. The settings on record: time 18-24 hrs. In general terms: In broth dilution the organism is exposed to a series of concentrations in liquid medium.

The test system of test [21] is Staphylococcus epidermidis. As to the kind of experiment: Antibacterial activity against Staphylococcus epidermidis ATCC 12228 assessed as reduction in bacterial growth incubated for 18 to 24 hrs by broth microdilution method. It is filed as functional. The settings on record: time 18-24 hrs.
The subject of test [22] is Acinetobacter baumannii. As to the kind of experiment: Antibacterial activity against Acinetobacter baumannii ATCC 19606 assessed as reduction in bacterial growth incubated for 18 to 24 hrs by broth microdilution method. It is filed as functional. The settings on record: time 18-24 hrs.
In test [23] the test system is Staphylococcus aureus. As to the kind of experiment: Antibacterial activity against Staphylococcus aureus 794 assessed as reduction in bacterial growth incubated for 18 to 24 hrs by broth microdilution method. The settings on record: time 18-24 hrs. It is filed as functional.
Test [24] concerns Staphylococcus aureus. The test can be described thus: Drug resistance, ratio of MIC for Staphylococcus aureus 25923 after 4 passages exposure to MIC for Staphylococcus aureus 25923 during first exposure. It is filed as functional.
Test [25] deals with Enterococcus faecalis. The test can be described thus: Antibacterial activity against Enterococcus faecalis ATCC 29212 assessed as reduction in bacterial growth incubated for 18 to 24 hrs by broth microdilution method. It is filed as functional. The note with it: time 18-24 hrs.
For test [26], the system named is Staphylococcus aureus. As to the kind of experiment: Antibacterial activity against Staphylococcus aureus 113 assessed as reduction in bacterial growth incubated for 18 to 24 hrs by broth microdilution method. The settings on record: time 18-24 hrs. It is filed as functional.
The test system of test [27] is Staphylococcus aureus. As to the kind of experiment: Drug resistance, ratio of MIC for Staphylococcus aureus 25923 after 15 passages exposure to MIC for Staphylococcus aureus 25923 during first exposure. It is filed as functional.
For test [28], the system named is Pseudomonas aeruginosa. As to the kind of experiment: Antibacterial activity against Pseudomonas aeruginosa ATCC 27853 assessed as reduction in bacterial growth incubated for 18 to 24 hrs by broth microdilution method. The settings on record: time 18-24 hrs. It is filed as functional.
Test [29] deals with Escherichia coli. The test can be described thus: Antibacterial activity against Escherichia coli 850 assessed as reduction in bacterial growth incubated for 18 to 24 hrs by broth microdilution method. The note with it: time 18-24 hrs. It is filed as functional.
The test system of test [30] is Escherichia coli. As to the kind of experiment: Antibacterial activity against Escherichia coli 780 assessed as reduction in bacterial growth incubated for 18 to 24 hrs by broth microdilution method. It is filed as functional. The settings on record: time 18-24 hrs.
The test system of test [31] is Bacillus subtilis. As to the kind of experiment: Antibacterial activity against Bacillus subtilis ATCC 23857 assessed as reduction in bacterial growth incubated for 18 to 24 hrs by broth microdilution method. It is filed as functional. The settings on record: time 18-24 hrs.
Test [32] concerns Klebsiella pneumoniae. The test can be described thus: Antibacterial activity against Klebsiella pneumoniae ATCC 700603 assessed as reduction in bacterial growth incubated for 18 to 24 hrs by broth microdilution method. The note with it: time 18-24 hrs. It is filed as functional.
Test [33] has as its system Staphylococcus aureus. As to the kind of experiment: Antibacterial activity against Staphylococcus aureus 125 assessed as reduction in bacterial growth incubated for 18 to 24 hrs by broth microdilution method. It is filed as functional. The settings on record: time 18-24 hrs.
In test [34] the test system is Escherichia coli. The test can be described thus: Antibacterial activity against Escherichia coli ATCC 25922 assessed as reduction in bacterial growth incubated for 18 to 24 hrs by broth microdilution method. The settings on record: time 18-24 hrs. It is filed as functional.
Test [35] deals with Pseudomonas aeruginosa. The test can be described thus: Antibacterial activity against Pseudomonas aeruginosa 6434N assessed as reduction in bacterial growth incubated for 18 to 24 hrs by broth microdilution method. It is filed as functional. The note with it: time 18-24 hrs.
Test [36] deals with Pseudomonas aeruginosa. The test can be described thus: Antibacterial activity against Pseudomonas aeruginosa 124 assessed as reduction in bacterial growth incubated for 18 to 24 hrs by broth microdilution method. The settings on record: time 18-24 hrs. It is filed as functional.
Test [37] concerns Staphylococcus aureus. As to the kind of experiment: Antibacterial activity against methicillin-resistant Staphylococcus aureus 75 assessed as reduction in bacterial growth incubated for 18 to 24 hrs by broth microdilution method. It is filed as functional. The settings on record: time 18-24 hrs.
For test [38], the system named is Escherichia coli. As to the kind of experiment: Drug resistance, ratio of MIC for Escherichia coli 25922 after 15 passages exposure to MIC for Escherichia coli 25922 during first exposure. It is filed as functional.
Test [39] has as its system Staphylococcus aureus. The test can be described thus: Antibacterial activity against Staphylococcus aureus ATCC 25923 assessed as reduction in bacterial growth incubated for 18 to 24 hrs by broth microdilution method. It is filed as functional. The settings on record: time 18-24 hrs.
The test system of test [40] is Escherichia coli. As to the kind of experiment: Drug resistance, ratio of MIC for Escherichia coli 25922 after 7 passages exposure to MIC for Escherichia coli 25922 during first exposure. It is filed as functional.
The subject of test [41] is Acinetobacter baumannii. The test can be described thus: Antibacterial activity against Acinetobacter baumannii 5444 assessed as reduction in bacterial growth incubated for 18 to 24 hrs by broth microdilution method. It is filed as functional. The note with it: time 18-24 hrs.

Converted amounts (≈) assume the structure as drawn. The source made the active and inactive calls. No cut-off for these calls is given here.

With `CC(C)CCCCC(=O)N[C@@H](CCN)C(=O)N[C@H](C(=O)N[C@@H](CCN)C(=O)N[C@H]1CCNC(=O)[C@H]([C@@H](C)O)NC(=O)[C@H](CCN)NC(=O)[C@H](CCN)NC(=O)[C@H](CC(C)C)NC(=O)[C@@H](Cc2ccccc2)NC(=O)[C@@H](CCN)NC1=O)[C@@H](C)O.CC[C@H](C)CCCCC(=O)N[C@@H](CCN)C(=O)N[C@H](C(=O)N[C@@H](CCN)C(=O)N[C@H]1CCNC(=O)[C@H]([C@@H](C)O)NC(=O)[C@H](CCN)NC(=O)[C@H](CCN)NC(=O)[C@H](CC(C)C)NC(=O)[C@@H](Cc2ccccc2)NC(=O)[C@@H](CCN)NC1=O)[C@@H](C)O`, the outcome in test [1], in test [2], in test [5], in [6], in [8] and in test [11] was Active. Also, the result in test [12], in test [13], in [15] and in test [16] was Active. Besides, the Activity entry in test [3] is “Dose-dependent-effect”; in test [7], “Active; Compound Showed Slightly Inferior Activity Than Compound D8”; in test [9], “Active; Compound Showed Lower Efficacy Than Positive Control 0.1% Tritionx 100”; in test [14], “Weak_effect”; in [18] it was above 20%. Also, the result in test [4], in [10] and in test [17] was inactive.

As usually defined, the MIC is the lowest concentration found to suppress growth. Regarding `CO[C@H]1/C=C/O[C@@]2(C)Oc3c(C)c(O)c4c(O)c(c(/C=N/N5CCN(C)CC5)c(O)c4c3C2=O)NC(=O)/C(C)=C\C=C\[C@H](C)[C@H](O)[C@@H](C)[C@@H](O)[C@@H](C)[C@H](OC(C)=O)[C@@H]1C` [RIFAMPIN], the minimum inhibitory concentration (MIC) in test [19] was determined as 128 µM (≈ 105 µg/mL); in test [20], 16 µM (≈ 13.2 µg/mL); in test [21], 1 µM (≈ 0.823 µg/mL); in test [22], 1 µM (≈ 0.823 µg/mL); in test [23], 4 µM (≈ 3.29 µg/mL); in [25] it was 1 µM (≈ 0.823 µg/mL). In addition, the MIC was 1 µM (≈ 0.823 µg/mL) in [26]; 32 µM (≈ 26.3 µg/mL) in test [28]; 16 µM (≈ 13.2 µg/mL) in test [29]; 16 µM (≈ 13.2 µg/mL) in test [30]; 1 µM (≈ 0.823 µg/mL) in [31]; 16 µM (≈ 13.2 µg/mL) in test [32]. Further, the MIC in test [33] came to 1 µM (≈ 0.823 µg/mL); in [34], 8 µM (≈ 6.58 µg/mL); in test [35] it was 16 µM (≈ 13.2 µg/mL); in test [36] it was 128 µM (≈ 105 µg/mL); in test [37], 128 µM (≈ 105 µg/mL); in [39] it was 1 µM (≈ 0.823 µg/mL). In addition, the minimal inhibitory concentration (MIC) in [41] was found to be 16 µM (≈ 13.2 µg/mL). Besides, the “fold change (FC)” value was determined as 8 in test [24], 512 in test [27], 64 in test [38] and 8 in [40].

For the origin of these results see ChEMBL document CHEMBL6114980, “Single or double lipid-modified ultra-short antimicrobial peptides for treating infections caused by resistant bacteria” (Eur J Med Chem, 2025).
